Legend:
[1] = system: Human fetal osteoblasts (hFOB, CRL-11372, ATCC); test: Cell adhesion testing; assay type: cell-based; conditions: 4 h culture, seeded at 3500 cells/cm^2
Experimental: (§1) Human fetal osteoblasts (hFOB, CRL-11372, ATCC) of population numbers 7-11 were cultured in Dulbecco's Modified Eagle's Medium (DMEM, GIBCO) supplemented with 10% fetal bovine serum (FBS, Hyclone) and 1% penicillin/streptomycin (P/S, Hyclone) under standard cell culture conditions (that is, a humidified, 5% CO2/95% air environment at 37° C.). Osteoblasts were seeded onto the petri-dish at a density of 3500 cells/cm^2 and were cultured under standard cell culture conditions for 4 h with peptide concentration discussed. After the prescribed time period, non-adherent cells were removed by sequential phosphate buffered saline (PBS) washings. The remaining cells were fixed using 10% normal buffered formaldehyde (Fisher Scientific) for 10 min and 0.1% Triton X-100 (Sigma-Aldrich) for 5 min. Adherent cells were counted in five random fields per substrate under a Zeiss Axiovert 200M fluorescence microscope. Experiments were run in triplicate and repeated three separate times for each substrate.

[2] = system: Human fetal osteoblasts (hFOB, CRL-11372, ATCC); test: Osteoblast proliferation testing (osteoblast density); assay type: cell-based; conditions: after day 3, seeded at 2500 cells/cm^2, FIG. 2
Experimental: as §1
For osteoblast proliferation studies, similar to the above procedures, osteoblasts were seeded on petri dish at 2500 cells/cm^2 with peptides and cultured for 1, 3 days. After the prescribed time periods, adherent cells were fixed, stained and counted under the fluorescence microscope as described above. All cellular experiments were run in triplicate and repeated at least three times for each substrate.

[3] = system: critical sized bone defect; test: Critical sized bone defect model, proximal tibia and distal femur; assay type: in vivo, Sinclair minipigs; conditions: with nPLGA and HRN based scaffolds, 4 and 8 weeks, FIG. 6
Experimental: A critical sized bone defect model was used in the proximal tibia and distal femur of 12 Sinclair minipigs (Sinclair Research, MO). Time points to be evaluated are 4 weeks and 8 weeks. Four surgical defects (2 tibia and 2 femur) were created on day 0 in all pigs in one limb and on day 28 in all pigs in the opposite limb. Treatments were applied according to predetermined treatment allocations. MRI evaluations of defects were performed at 4 weeks (all limbs) and 8 weeks (initial defects created on day 0). Following euthanasia, defects were evaluated using microCT and histology to measure bone volume fraction within the defects and with mechanical testing to evaluate compressive stiffness and integration with surrounding bone.
Minipigs were given pre-operative analgesic and antimicrobial drugs immediately prior to anesthesia. Pigs were anesthetized in the Clinical Discovery Laboratory (CDL) using standard swine protocols. One stifle region was aseptically prepared and draped routinely for surgery of the proximal tibia and distal femur. Defects were created in epiphyseal/metaphyseal cancellous bone using an 8 mm drill to a depth of 20 mm. The procedure was repeated in the opposite hind limb at 4 weeks. (Confirmation of the critical defect size in minipigs is to be determined.)
Minipigs were housed in the animal holding facility room 1094 and monitored post-operatively. […]

osteoblasts [4] = test: Cell function tests, overall osteoblast function; assay type: cell-based, human; conditions: summary of total protein, ALP and calcium tests
Experimental: (§2) Total intracellular protein content of osteoblasts is extremely important since it is the indication of healthy growth and normal cell response. Thus, the amount of protein produced by cells were measured up to 3 weeks of culture after providing complete media. In order to release the intracellular protein, the adhered cells on the substrates were lysed in DI water using a standard four cycle freeze-thaw method. The resulting lysate solution was then used for analysis. The total protein content were determined by a BCA (bicinchoninic acid) assay kit (Pierce) and the absorbance of the solution were measured using a spectrophotometer at a wavelength of 570 nm. The absorbance was then converted to protein content using an albumin standard curve to determine the amount of intracellular protein.
(§3) The resulting lysate solution obtained by a four cycle freeze-thaw method was used to measure the ALP activity using a colorimetric assay (Teco). The absorbance of the solution was measured using a spectrophotometer at a wavelength of 590 nm. The absorbance was converted to concentration using ALP standard and all the data were normalized with total protein content to account for changes in number of cells present on surface.
The calcium content was measured up to 3 weeks in culture using a colorimetric assay (Teco) (see FIG. 4). […]

osteoblasts [5] = test: Alkaline phosphatase activity of osteoblasts (colorimetric assay); assay type: cell-based, human; conditions: up to 3 weeks, normalized with total protein content, FIG. 3
Experimental: as §3

osteoblasts [6] = test: Total intracellular protein content of osteoblasts (BCA assay); assay type: cell-based, human; conditions: after 7 and 14 days, FIG. 5
Experimental: as §2

osteoblasts [7] = test: Calcium content / calcium deposition by osteoblasts (colorimetric assay); assay type: cell-based, human; conditions: after 21 days, normalized with total protein content
Experimental: The calcium content was measured up to 3 weeks in culture using a colorimetric assay (Teco) (see FIG. 4). After all the lysate was aspirated, the surfaces were soaked overnight in 6 N HCl solution to dissolve the deposited calcium. The calcium solution was then reacted with assay reagents and the absorbance of the solution was measured photometrically at 570 nm. The absorbance was then converted to concentration using calcium standards and all the data were normalized with total protein content to account for changes in the number of cells present on surface.

Substance	osteoblast adhesion to substrates [1]	osteoblast density / attachment on peptide coated surfaces [2]	new bone growth (histology) [3]	osteoblast function (overall) (osteoblasts [4])	alkaline phosphatase activity (osteoblasts [5])	total proteins synthesized by osteoblasts (osteoblasts [6])	calcium deposition (osteoblasts [7])
KRSR (Ac-KRSR-NH2) [reference compound]	proved to be crucial for maximal osteoblast adhesion to substrates	increased osteoblast attachment compared to other peptides studied	showed new bone growth	showed increased osteoblast function	–	–	–
KRSRSNVILKKYRN (Ac-KRSRSNVILKKYRN-NH2)	–	increased osteoblast attachment compared to other peptides studied	showed new bone growth	showed increased osteoblast function	superiority	showed the highest value compared to other peptides and the control	showed highest value compared to other materials studied
SNVILKKYRN	–	increased osteoblast attachment compared to other peptides studied	–	–	–	–	–

— patent US20130337028A1, “BIOMIMETIC PEPTIDES FOR BONE AUGMENTATION” (NANOVIS, INC., priority 2010, published 2013)
